US20060030603A1, “Novel aryl urea analogs and use thereof as antibacterial agents” (priority 2004, published 2006)
In brackets after ≈: the same amount, converted by molar mass. Where two headings read alike, the source gives them in different places.

Key:
S. aureus ATCC 13709 = experiment: MIC assay, S. aureus; format: cell-based
Method: In vitro structure/activity relationship (“SAR”) tests were performed according to the following procedure: MIC assays were carried out in a 150 μL volume in duplicate in 96-well clear flat-bottom plates. The bacterial suspension from an overnight culture growth in the appropriate medium was added to a solution of test compound in 0.5% DMSO in water. Final bacterial inoculum was approximate 10^3-10^4 CFU/well. The percentage growth of the bacteria in the test wells relative to that observed for a control well containing no compound was determined by measuring absorbance at 595 nm (A595) after 20-24 h at 37° C. […] The bacterial strains used for the assays include S. aureus ATCC 13709, S. pyogenes ATCC 49399, E. faecalis ATCC 29212, E. faecium ATCC 6569, E. coli ATCC 25922, K. pneumoniae ATCC 13383, P. vulgaris ATCC 8427, P. aeruginosa ATCC 25416. The results of the in vitro SAR tests are in Tables 1-3.

S. aureus (ATCC 13709) = experiment: Mouse Protection Assay (lethal murine model of bacterial infection); format: in vivo, ICR-CD-1 female mice; conditions: 1 × 2 mg/Kg, positive control, 1 h and 3 h post infection, one week
Method: The in vivo tests were preformed according to the following procedure:
Mouse Protection Assay: 10 mice/dose group (ICR-CD-1 female mice 18-20 grams, Charles River) were infected with a lethal dose (10^6 CFU/mouse) of S. aureus (ATCC 13709) suspended in 7.5% hog Gastric Mucin IP. The infected animals were treated at 1 h and 3 h post infection with either compound 12e (lactate salt) from 37 mg/kg down to 2.3 mg/kg or compound 14b (HCl salt) from 75 mg/kg down to 2.3 mg/kg (0.1 mL/mouse). The positive control drug was Vancomycin (Eli Lilly) 1 mg/kg.

[1] = Table 1, thiourea/urea analogs, acetate salts
[2] = Table 2, benzylamino group modified analogs
[3] = Table 2, benzylamino group modified analogs, read-out: MIC S. aureus

Structure (SMILES)	MIC S. aureus (S. aureus ATCC 13709; [1]) [µM]	MIC S. aureus (S. aureus ATCC 13709; [2]) [µM]	also measured
COc1ccc(NC(=S)NCCCNCc2cc(Br)cc(Br)c2)cc1 [8t]	25 to 50		
O=C(NCCCNCc1cccc(-c2ccccc2)c1)Nc1ccc(C(F)(F)F)cc1 [12c]		6 to 12	
O=[N+]([O-])c1ccc(NC(=S)NCCCNCc2cc(Br)cc(Br)c2)cc1 [8q]	12 to 25		
O=C(NCCCNCc1cc(Br)cc(Br)c1)Nc1ccc(Cl)cc1 [9c]	6 to 12		
O=C(NCCCNCc1ccc(Br)[nH]1)Nc1ccc(C(F)(F)F)cc1 [15e, 1-{3-[(5-bromo-1H-pyrrol-2-ylmethyl)-amino]-propyl}-3-(4-trifluoromethyl-phenyl)-urea]			MIC (S. aureus ATCC 13709; Staphylococcus aureus, ATCC13709, Table 3, heteroaryl analogs, read-out: MIC S. aureus): 3 to 6 µM (≈ 1.26 to 2.52 µg/mL)
COc1ccc(-c2ccc(CNCCCNC(=O)Nc3ccc(C(F)(F)F)cc3)cc2)cc1 [12f]		3 to 6	
FC(F)(F)c1cccc(NC(=S)NCCCNCc2cc(Br)cc(Br)c2)c1 [8i]	6 to 12		
CN[C@H](CC(C)C)C(=O)N[C@H]1C(=O)N[C@@H](CC(N)=O)C(=O)N[C@H]2C(=O)N[C@H]3C(=O)N[C@H](C(=O)N[C@H](C(=O)O)c4cc(O)cc(O)c4-c4cc3ccc4O)[C@H](O)c3ccc(c(Cl)c3)Oc3cc2cc(c3O[C@@H]2O[C@H](CO)[C@@H](O)[C@H](O)[C@H]2O[C@H]2C[C@](C)(N)[C@H](O)[C@H](C)O2)Oc2ccc(cc2Cl)[C@H]1O [Vancomycin, reference compound]			Mice Alive/Total (S. aureus (ATCC 13709)): 10/10
CC(=O)Nc1ccc(CNCCCNC(=O)Nc2ccc(C(F)(F)F)cc2)cc1 [12k]			MIC (S. aureus ATCC 13709; [3]): >100 µM
CSc1ccc(NC(=O)NCCCNCc2cc(Br)cc(Br)c2)cc1 [9e]	25 to 50		
Fc1ccc(NC(=S)NCCCNCc2cc(Br)cc(Br)c2)c(F)c1F [8e]	6 to 12		
Cc1ccc(NC(=S)NCCCNCc2cc(Br)cc(Br)c2)cc1 [8r]	12 to 25		
O=C(NCCCNCc1cc(Cl)cc(Cl)c1)Nc1ccc(C(F)(F)F)cc1 [12m]		6 to 12	
COc1cccc(NC(=S)NCCCNCc2cc(Br)cc(Br)c2)c1 [8j]	25 to 50		
CCOc1ccc(Br)cc1CNCCCNC(=O)Nc1ccc(C(F)(F)F)cc1 [12u]		6 to 12	
COc1ccccc1-c1ccc(CNCCCNC(=O)Nc2ccc(C(F)(F)F)cc2)cc1 [12g]		6 to 12	
O=C(NCCCNCc1cc(Br)cc(Br)c1)Nc1ccc(C(F)(F)F)cc1 [9d, 1-[3-(3,5-Dibromo-benzylamino)-propyl]-3-(4-trifluoromethyl-phenyl)-urea]		3 to 6	MIC (S. aureus ATCC 13709; Staphylococcus aureus, ATCC13709, read-out: MIC S. aureus): 3 to 6 µM (≈ 1.53 to 3.05 µg/mL)
CN(CCCNC(=O)Nc1ccc(C(F)(F)F)cc1)Cc1cc(Br)cc(Br)c1 [compound 13]			MIC (S. aureus ATCC 13709; [3]): >100 µM
COc1ccccc1NC(=O)NCCCNCc1cc(Br)cc(Br)c1 [9a]	25 to 50		
CSc1ccccc1NC(=S)NCCCNCc1cc(Br)cc(Br)c1 [8d]	50 to 100		
S=C(NCCCNCc1cc(Br)cc(Br)c1)Nc1ccc(Cl)cc1 [8m]	6 to 12		
Fc1ccc(NC(=S)NCCCNCc2cc(Br)cc(Br)c2)cc1 [8l]	12 to 25		
O=C(NCCCNCc1cc(F)cc(F)c1)Nc1ccc(C(F)(F)F)cc1 [12n]		50 to 100	
